From publication PMC6270994, “The Hydractinia echinata Test-System. III: Structure-Toxicity Relationship Study of Some Azo-, Azo-Anilide, and Diazonium Salt Derivatives” (Molecules, 2014)
Where a name gives a salt, the structure may show the parent alone.

What follows are compounds tested on Hydractinia echinata (assay: Hydractinia echinata test system (HeTS): reduction of Cs+-induced metamorphosis of larvae). Settings: Hydractinia echinata; MRC50 in mol/L = concentration for 50% decrease of metamorphosis vs control; larvae exposed 3 h with Cs+, read after 24 h; read-out: M: experimental Mlog(1/MRC50) (converted).
Assay type: in vivo

Row | Compound | EC50 [µM]
1 | Nc1cc(S(=O)(=O)O)cc2cc(S(=O)(=O)O)c(N=Nc3ccc(NC(=O)c4ccc(N=Nc5ccc(O)c(C(=O)Nc6ccccc6)c5)cc4)cc3)c(O)c12 [Compound 122, 5-Amino-4-hydroxy-3-{2-[4-(4-{2-[4-hydroxy-3-(phenyl-carbamoyl)phenyl]-diazen-1-yl}-benzamido)phenyl]-diazen-1-yl}-naphthalene-2,7-disulfonic acid] | 31.6
2 | O=C(Nc1ccc(N=Nc2c(O)c(S(=O)(=O)O)cc3cc(S(=O)(=O)O)ccc23)cc1)c1ccc(N=Nc2ccc(O)c(C(=O)Nc3ccccc3)c2)cc1 [Compound 127, 3-Hydroxy-4-{2-[4-(4-{2-[4-hydroxy-3-(phenylcarbamoyl)phenyl]diazen-1-yl}-benzamido)phenyl]-diazen-1-yl}-naphthalene-2,7-disulfonic acid] | 58.9
3 | O=C(Nc1ccc(N=Nc2c(O)ccc3ccccc23)cc1)c1ccc(N=Nc2ccc(O)c(C(=O)Nc3ccccc3)c2)cc1 [Compound 128, 2-Hydroxy-5-{2-[4-({4-[2-(2-hydroxynaphthalen-1-yl)diazen-1-yl]-phenyl}carbamoyl)-phenyl]diazen-1-yl}-N-phenylbenzamide] | 53.7

Same assay, conditions: MRC50 in mol/L = concentration for 50% decrease of metamorphosis vs control; larvae exposed 3 h with Cs+, read after 24 h

Row | Compound | M: experimental Mlog(1/MRC50)
4 | O=C(Nc1ccc2c(O)c(N=Nc3ccccc3)c(S(=O)(=O)[O-])cc2c1)Nc1ccc2c(O)c(N=Nc3ccccc3)c(S(=O)(=O)[O-])cc2c1.[Na+].[Na+] [Compound 129, Direct Brilliant Orange] | 3.65
5 | O=C(Nc1ccc2c(O)c(N=Nc3ccc(N=Nc4ccc(S(=O)(=O)[O-])cc4)cc3S(=O)(=O)[O-])c(S(=O)(=O)[O-])cc2c1)Nc1ccc2c(O)c(N=Nc3ccc(N=Nc4ccc(S(=O)(=O)[O-])cc4)cc3S(=O)(=O)[O-])c(S(=O)(=O)[O-])cc2c1.[Na+].[Na+].[Na+].[Na+].[Na+].[Na+] [Compound 132, Direct Red 80 (Saturn Rot F3B)] | 3.80
6 | COc1cc(NC(=O)c2ccccc2)c(OC)cc1[N+]#N [Compound 135, Fast Blue RR Salt] | 4.09
7 | CCOc1cc(NC(=O)c2ccccc2)c(OCC)cc1[N+]#N.[Cl-] [Compound 136, Fast Blue BB Salt] | 4.17
8 | Bordo Direct AN [Compound 81] | 3.86
9 | Direct Black 32 [Compound 77] | 3.89
10 | Fast Red B Salt [Compound 137] | 5.25

Same assay, conditions: in vivo

Row | Compound | F(1), F(2),... individual log(1/MRC50) toxicity value
11 | COc1ccc(N)cc1 [p-Methoxy-aniline] | 3.32
12 | Nc1ccc([N+](=O)[O-])cc1 [p-NA, p-nitroaniline] | 2.85
